From US10172789B2, “Compositions for transdermal delivery of mTOR inhibitors” (PALVELLA THERAPEUTICS LLC, priority 2013, dated 2019)
Entries after “also recorded” stand apart in the source; their conditions may differ.

Columns and labels:
[1] = system: ribosomal protein S6 phosphorylation; test: S6 phosphorylation (P-S6) western blot in human HaCaT keratinocytes; type: cell-based
Experimental: (§1) FIGS. 1C-F show immunochemistry […] images of frozen skin sections taken from mice treated with the same creams as FIG. 1B.
(§2) To evaluate whether benzyl alcohol has deleterious effects on rapamycin activity, rapamycin was dissolved in benzyl alcohol (and compared with other solvents as indicated) and evaluated for its ability to block phosphorylation of ribosomal protein S6, a commonly used method to assess mTOR pathway inhibition by rapamycin, in human HaCaT and patient-derived keratinocytes. […] In the assays described below, a P-S6-specific antibody recognizes only the phosphorylated form of S6 whereas the other antibody recognizes total S6 protein (i.e., both P-S6 and unphosphorylated S6). […] The inhibition of phospho-S6 was observed by both western blot analysis of protein extracts from treated mouse skin (FIG. 1B) and by immunohistochemistry (IHC) of frozen sections prepared from treated mouse skin (FIG. 1C-F).
Next-generation mTOR inhibitors have similar effects on ribosomal protein S6-phosphoylation (p-S6) when compared to rapamycin. […] The p-S6 levels were quantified and the ratio of p-S6 to total S6 (total S6 data not shown) was graphed in FIG. 2B in similar fashion to FIG. 1.

[2] = Rapamycin distribution in human explant skin after topical application (reverse-phase HPLC); type: in vitro ADME
Experimental: Rapamycin extracted from the indicated tissue slices was assayed by reverse-phase HPLC. The tissue surface was cleaned with isopropyl alcohol prior to sectioning to remove any residual surface material.
To test delivery of rapamycin from a formulation similar to that disclosed in Example 2, the formulation was applied to explant human skin.

mouse skin = test: Gross examination of topically-treated mouse ears, flanks and footpads; type: in vivo; conditions: flanks and footpads vs untreated or placebo-treated skin, data not shown
[3] = system: ribosomal protein S6 phosphorylation; test: S6 phosphorylation in mouse skin after topical formulation (western blot, IHC); type: in vivo; conditions: mouse skin including ears, topical formulation with rapamycin dissolved in benzyl alcohol; western blot and IHC
Experimental: as §1, §2

In the case of `CO[C@H]1C[C@@H]2CC[C@@H](C)[C@@](O)(O2)C(=O)C(=O)N2CCCC[C@H]2C(=O)O[C@H]([C@H](C)C[C@@H]2CC[C@@H](O)[C@H](OC)C2)CC(=O)[C@H](C)/C=C(\C)[C@@H](O)[C@@H](OC)C(=O)[C@H](C)C[C@H](C)/C=C/C=C/C=C/1C` [rapamycin], the “effect on total S6 protein levels” value ([1]; rapamycin dissolved in benzyl alcohol or other solvents) is reported as “little or no effect”, the “inhibition of ribosomal protein S6 phosphorylation (P-S6)” value ([1]; rapamycin dissolved in benzyl alcohol, DMSO, ethanol or diglycol, FIG. 1A) is reported as “efficiently inhibits” and the “net deposition of rapamycin within the skin” value ([2]; 16 hours after application of rapamycin formulation) is reported as > 4 % of the applied dose. The “rapamycin concentrations within the epidermis (and dermis)” value ([2]; 16 hours after topical application, formulation similar to Example 2, compared with level needed to inhibit S6 phosphorylation in cell culture) was “many fold higher than required for in vitro activity; also recorded: well above the IC50 value”, the “skin irritation on gross examination” value (mouse skin) was “little or no irritation” and the “S6 phosphorylation relative to total S6 protein” value [3] was “inhibited”.
